We go through 18 compounds from PMC10082216 (Nature Communications, 2023).

Structures can show the parent of a compound that is named as a salt. Where two headings read alike, the source gives them in different places.

Series [1] has as its system mature stage V gametocytes (NF54 strain). Nature of the series: microbe, parasite or virus in culture. The class given is cell-based, Plasmodium falciparum. As to conditions: read-out: Stiffening IC50 (retention). As to the method: (§1) Screening was conducted as previously described. Briefly, mature stage V gametocytes (NF54 strain) were cultured in vitro, then exposed to the explored compounds and filtered thereafter through layers of microspheres (microsphiltration)[25],[28]. Stiffening activity was determined by comparing gametocytemia up and downstream from the microsphere layers after filtration of drug-exposed gametocytes in 384-well plates using a vacuum manifold. Gametocytemia was assessed using DNA (Sybr Green) and erythrocyte membrane (CellMask) staining. Killing effect was assessed by MitoTracker staining. We screened two small libraries, specifically the Pathogen Box from the Medicine for Malaria Venture and the Kinase Inhibitors Box from GSK (400 and 350 compounds, respectively, Fig. 1A, B), and furthermore the larger ReFrame repurposing library (12,805 compounds, Fig. 1C).
(§2) The Pathogen Box library (400 compounds, provided by MMV-Medicine for Malaria Ventures, Geneva, Switzerland), the Kinase Inhibitors Box library (350 compounds, provided by GSK-Glaxo SmithKline DDW Unit, Tres Cantos, Spain), and the ReFrame library (12,805 compounds provided by the California Institute for Biomedical Research-Calibr, La Jolla, CA, USA) were used according to the providers’ instructions. DMSO-solubilized compounds (10 mM stock concentration) were loaded in 384-well plates (Seahorse, cat. no. 201035−100). Two columns were left empty for the controls. For each compound, 5 nL were pre-spotted in a single well to reach a final concentration of 1.11 μM. The final volume for each well was 45 μl. Controls were prepared as follows: 22.5 nL of DMSO were loaded in 16 wells as negative controls (0.05% final concentration); 22.5 nL of NITD609 (provided by MMV, Geneva, Switzerland) 1 mM were loaded in 8 wells (0.5 μM final concentration), 17 nL of Calyculin A (Sigma, cat. no. C5552) […] were loaded in 6 wells (75 nM final concentration) and 225 nL of Gentian Violet (MolPort, cat. no. 002-133-551) 10 mM were loaded in the remaining 2 wells (50 μM final concentration). Plates were prepared in triplicate for the Pathogen Box and sextuplicate for the Kinase Inhibitors Box.
(§3) Plasmodium falciparum NF54 strain parasites (used for screening campaign) were cultured at 4% hematocrit in RBCs from informed blood donors (blood group A) as previously described. Parasites were taken from the -80 °C freezer, then rapidly melt for 1 minute in a 37 °C water bath. A saline solution was gently added to avoid the lysis. Firstly, NaCl dissolved at 12% in distilled water (1/5 of the volume measured in the cryovial) and then NaCl dissolved at 1.6% (9 times the cryovial’s volume). After that, fresh RBCs were added to allow parasites re-growth. Infected RBCs were kept in RPMI medium (Sigma-Aldrich, cat. no. R4130), supplemented with 10% of decomplemented human serum, hypoxanthine 50 mg/l (Sigma-Aldrich, cat. no. H9636). Biobank of Castilla y Leon and Centro de Transfusiones de Madrid as providers of human red blood cell concentrates. The production of gametocytes was induced from a 0.5% ring-stage parasitemia (day 0). Medium was changed daily to induce gametocytes differentiation, as previously described. At day 17, gametocytes were concentrated using a density gradient medium (NycoPrep 1.077, Progen cat. no. 1114550)[27]. Parasitemia was adjusted by FACS (SYBR-Green and MitoTracker double staining, 3–5% targeted). Hematocrit was adjusted to 0.5% by adding fresh RBCs and controlled by manual counting in a Neubauer chamber (Celeromics, cat. no. 717810). Finally, the gametocyte suspension was poured (45 μL/well) into the compound-containing 384-well microplate, then incubated 24 hours both for the screening campaign and the dose-response analysis. Both asexual and sexual stages were cultivated in RPMI 1640 supplemented with 25 mM HEPES, 50 mg/L hypoxanthine, 50 μg/mL gentami-cin, 10% pooled heat-inactivated human serum (A^+).

For series [2], the system named is HepG2. As to conditions: cited from earlier work.
For series [3], the system named is HEK293T. To be noted: cited from earlier work.
Series [4] concerns mature stage V gametocytes (NF54 strain). In words: High-throughput screening: killing effect by MitoTracker staining, primary screening at 1.11 µM and dose-response analysis. The class given is cell-based, Plasmodium falciparum. As to conditions: read-out: Killing IC50. On the procedure: as §1, §2, §3
The subject of series [5] is P.falciparum Dd2. More on the design: method as in previously published reports (Table S1 legend). As to conditions: 72 h; results in previous assays; ref previously published reports (Table S1 legend); read-out: 72-h Dd2-SybrGreen PBFS assay IC50; cited from earlier work.
Series [6] in a line: Hit scoring on safety in human subjects and pharmacokinetics. To be noted: for Score (PK): peak plasma concentration vs IC50. The source says:
Hits from the ReFrame library were further selected based on safety, preferably oral administration (high score if oral), and potential availability for widespread use.

[7] abbreviates: Plasmodium falciparum, NF54, 24 h.
Setting [8] is: read-out: Cellular cytotoxicity assay IC50, HepG2, 72 h, second value of cell, ref previously published reports (Table S1 legend).
Where [9] appears, read: read-out: Cellular cytotoxicity assay IC50, HEK293T, 72 h, first value of cell, ref previously published reports (Table S1 legend).
[10] abbreviates: Plasmodium falciparum, NF54, 24 h, stage V gametocytes NF54, 24 h, dose-response analysis, N/A = not active in dose-response analysis.
The mark [11] stands for this setting: stage V gametocytes NF54, 24 h, dose-response analysis, N/A = not active in dose-response analysis.
Where [12] appears, read: Plasmodium falciparum, stage V gametocytes NF54, 24 h, dose-response analysis, N/A = not active in dose-response analysis.

Regarding `CCCCC(CC)CNC(=N)NC(=N)NCCCCCCNC(=N)NC(=N)NCC(CC)CCCC` (stereo not shown) [Alexidine dihydrochloride], the IC50 (commonly the point on the concentration scale where inhibition reaches its midpoint) in series [1] (setting [7]) was 550 nM; in series [2] (setting [8]), 3060 nM; in series [3] (setting [9]), 3330 nM; in series [4] (setting [10]) it was 41000 nM; in series [5], 32 nM.

Take `CC[C@H]1CN2CCc3cc(OC)c(OC)cc3[C@@H]2C[C@@H]1C[C@H]1NCCc2cc(O)c(OC)cc21` [Cephaeline]: the IC50 is 3800 nM in series [1] (setting [7]); 62 nM in series [2] (setting [8]); 14 nM in series [3] (setting [9]); 1000 nM in series [4] (setting [7]); 28 nM in series [5].

`CCCCCCCCN=c1ccn(CCCCCCCC)cc1` [Pirtenidine]: the IC50 in series [1] (setting [11]) is 3650 nM; in series [2], 285 nM; in series [3], 1480 nM; in series [4] (setting [11]) it was 2780 nM; in series [5], 615 nM. Besides, in series [6], the “Score (safety)” value is 0. Also, the “Score (PK)” value in series [6] is 0.

Turning to `COc1cccc2c1ccc1nc3cccc(C(=O)N[C@H](C)CN(C)C)c3nc12` [MLN 576], the IC50 in series [1] (setting [11]) was 5020 nM; in series [2] it was 413 nM; in series [3], 218 nM; in series [5], 2040 nM. Also, the “Score (safety)” value in series [6] worked out at 0. The “Score (PK)” value in series [6] turned out to be 0.

With `N=C(N)c1ccc(C=C2c3ccccc3-c3ccccc32)cc1` [Paranyline], the IC50 in series [1] (setting [7]) was 3200 nM; in series [2] (setting [8]) it was 650 nM; in series [3] (setting [9]), 1420 nM; in series [4] (setting [10]) it was 1900 nM; in series [5], 1870 nM. Besides, the “Score (safety)” value in series [6] was determined as 0. Also, in series [6], the “Score (PK)” value is 0.

In the case of `CO[C@H]1C[C@H](O[C@H]2CC[C@]3(C=O)[C@H]4CC[C@]5(C)[C@@H](C6=CC(=O)OC6)CC[C@]5(O)[C@@H]4CC[C@]3(O)C2)O[C@H](C)[C@H]1O` [Cymarine], the IC50 in series [1] (setting [7]) is 330 nM; in series [2] (setting [8]) it was 102 nM; in series [3] (setting [9]) it was 71 nM; in series [5] it was 9950 nM. For the same compound, the “Score (safety)” value in series [6] (human) came to 0. In addition, the “Score (PK)” value in series [6] came to 0.

For the compound `C(=N\NC1=NCCN1)/c1c2ccccc2c(/C=N/NC2=NCCN2)c2ccccc12` [Bisantrene HCl], the IC50 was 62 nM in series [2] (setting [8]), 54 nM in series [3] (setting [9]), 2200 nM in series [4] (setting [11]) and 65 nM in series [5].

Take `O=C(CC1NCCCC1O)Cn1cnc2cc(Br)c(Cl)cc2c1=O` (stereo not shown) [Halofuginone]: the IC50 in series [1] (setting [7]) is 4300 nM; in series [2], 36 nM; in series [3], 89 nM; in series [4] (setting [12]) it was 240 nM; in series [5] it was 1 nM. In series [6] (human), the “Score (safety)” value was found to be 3.

As to `O=C(NO)c1cnc(N2C[C@@H]3[C@H](C2)[C@H]3NCc2ccc3cc(F)ccc3n2)nc1` [CHR-3996], the IC50 in series [1] (setting [7]) is 7230 nM; in series [2] it was 127 nM; in series [3] it was 728 nM; in series [4] (setting [10]) it was 70 nM; in series [5] it was 15 nM. For the same compound, the “Score (safety)” value in series [6] turned out to be 0. In series [6], the “Score (PK)” value is 0.

Regarding `CC1CCC(C(C)C)C(OC(=O)C[N+](C)(C)CCCCCCCCCC[N+](C)(C)CC(=O)OC2CC(C)CCC2C(C)C)C1` (stereo not shown) [Decamethoxine], the IC50 in series [1] (setting [11]) is 1000 nM; in series [2], 4300 nM; in series [3], 3300 nM; in series [4] (setting [11]) it was 8100 nM; in series [5], 61 nM.

On to `C[C@@H]1O[C@@H](O[C@H]2CC[C@]3(C=O)[C@H]4CC[C@]5(C)[C@@H](C6=CC(=O)OC6)CC[C@]5(O)[C@@H]4CC[C@]3(O)C2)[C@H](O)[C@H](O)[C@H]1O` [Convallatoxin], for which the 50% inhibitory concentration (IC50) in series [1] (setting [7]) was 50 nM; in series [2] (setting [8]), 33 nM; in series [3] (setting [9]), 26 nM; in series [5], 16 nM.

For `Cc1nc2c(s1)C(O)=C/C(=N\CCN(C)C)C2=O` [BN-82685], the concentration for half-maximal inhibition (IC50) was 4600 nM in series [1] (setting [7]); 1890 nM in series [2] (setting [8]); 2920 nM in series [3] (setting [9]); 2800 nM in series [4] (setting [10]); 1740 nM in series [5].

On to `CC1=C(C)C(=O)C(CCCCCCCCCC[P+](c2ccccc2)(c2ccccc2)c2ccccc2)=CC1=O` [SkQ1], for which the IC50 was 1900 nM in series [1] (setting [11]); 3130 nM in series [2]; 778 nM in series [3]; 3850 nM in series [4] (setting [11]); 1050 nM in series [5].

For `COC(=O)C[C@](O)(CCCC(C)(C)O)C(=O)O[C@@H]1C(OC)=C[C@]23CCCN2CCc2cc4c(cc2[C@H]13)OCO4` [Homoharringtonine], the IC50 in series [1] (setting [7]) was 2300 nM; in series [2], 122 nM; in series [3] it was 32 nM; in series [4] (setting [10]), 1730 nM; in series [5] it was 7 nM.

In the case of `C[C@@H]1O[C@@H](O[C@@H]2C=C3CC[C@@H]4[C@H](CC[C@]5(C)[C@@H](c6ccc(=O)oc6)CC[C@]45O)[C@@]3(C)CC2)[C@H](O)[C@H](O)[C@H]1O` [Proscillaridin], the IC50 in series [1] (setting [7]) is 80 nM; in series [2] (setting [8]), 14 nM; in series [3] (setting [9]), 9 nM; in series [4] (setting [12]), 300 nM; in series [5] it was 9950 nM. Also, in series [6] (human), the “Score (safety)” value was 0. Moreover, the “Score (PK)” value in series [6] was found to be 0.

Consider `CC(=O)O[C@H]1C[C@H](O[C@H]2[C@@H](O)C[C@H](O[C@H]3[C@@H](O)C[C@H](OC4CC[C@@]5(C)[C@H](CC[C@@H]6[C@@H]5CC[C@]5(C)[C@@H](C7=CC(=O)OC7)CC[C@]65O)C4)O[C@@H]3C)O[C@@H]2C)O[C@H](C)[C@H]1O[C@@H]1O[C@H](CO)[C@@H](O)[C@H](O)[C@H]1O` (stereo partly shown) [Lanatoside A], for which the IC50 in series [1] (setting [7]) was 860 nM; in series [2] (setting [8]), 136 nM; in series [3] (setting [9]), 171 nM; in series [5], 9950 nM. The “Score (safety)” value in series [6] (human) is given as 0. In series [6], the “Score (PK)” value was 0.

Consider `CN(C)CCOc1ccc2[nH]c(C(=O)NCC#Cc3ccc(C(=O)NO)cc3)cc2c1` [CRA-026440], for which the IC50 was 550 nM in series [1] (setting [11]); 11 nM in series [2]; 81 nM in series [3]; 16000 nM in series [4] (setting [11]); 63 nM in series [5].

Regarding `CO[C@H]1/C=C\C=C(/C)C(=O)NC2=CC(=O)C(NCCN(C)C)=C(C[C@@H](C)C[C@H](OC)[C@H](O)[C@@H](C)/C=C(\C)[C@@H]1OC(N)=O)C2=O` [Alvespimycin hydrochloride], the IC50 in series [1] (setting [7]) was 960 nM; in series [2] (setting [8]) it was 14 nM; in series [3] (setting [9]), 98 nM; in series [4] (setting [12]) it was 1750 nM; in series [5], 272 nM.
